Measurements reported in patent US10670605B2, “Cysteine reactive probes and uses thereof” (The Scripps Research Institute, priority 2015, dated 2020).
Where “and” joins values, the source holds several entries; their conditions need not be identical. Equal entries are not always repeated. One block for each compound: values may come before it.

Experiments:
NR3C1 C302 (P04150) = target: T1, NR3C1 C302 (P04150) (Homo sapiens, UniProt P04150); test: Competitive isoTOP-ABPP, cell lysates; assay type: binding; details: for R value (DMSO/fragment) / isoTOP-ABPP ratio, P04150_C302: 500 μM; for R value (DMSO/fragment): in vitro, MDA-MB-231; for isoTOP-ABPP ratio, P04150_C302: invitro; for isoTOP-ABPP reactivity ratio, P04150_C302 / isoTOP-ABPP reactivity profile ratio, P04150_C302: 500 μm
T1 sequence (P04150 1-777): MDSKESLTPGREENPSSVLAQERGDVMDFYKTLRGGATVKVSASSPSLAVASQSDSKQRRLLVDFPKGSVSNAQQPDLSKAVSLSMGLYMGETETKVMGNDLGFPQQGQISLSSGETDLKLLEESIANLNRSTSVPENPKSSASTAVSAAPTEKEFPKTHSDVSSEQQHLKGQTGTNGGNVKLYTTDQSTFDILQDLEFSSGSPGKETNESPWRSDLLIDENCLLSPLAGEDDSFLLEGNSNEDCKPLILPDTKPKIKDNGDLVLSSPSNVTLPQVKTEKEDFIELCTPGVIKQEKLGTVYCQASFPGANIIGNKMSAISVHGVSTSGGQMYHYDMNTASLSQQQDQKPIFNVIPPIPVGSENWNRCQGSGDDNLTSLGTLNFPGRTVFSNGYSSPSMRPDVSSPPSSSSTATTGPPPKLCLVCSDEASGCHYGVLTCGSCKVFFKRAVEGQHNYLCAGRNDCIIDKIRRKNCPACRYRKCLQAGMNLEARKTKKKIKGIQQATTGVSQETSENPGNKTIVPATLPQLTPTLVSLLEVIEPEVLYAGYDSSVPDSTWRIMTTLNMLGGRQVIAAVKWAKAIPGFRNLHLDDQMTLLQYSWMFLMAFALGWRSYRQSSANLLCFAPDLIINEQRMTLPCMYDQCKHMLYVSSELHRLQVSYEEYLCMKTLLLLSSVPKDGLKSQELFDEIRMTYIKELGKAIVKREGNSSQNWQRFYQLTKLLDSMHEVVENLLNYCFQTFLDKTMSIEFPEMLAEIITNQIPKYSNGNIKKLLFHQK

IRF8 C306 (Q02556) = target: T2, IRF8 C306 (Q02556) (Homo sapiens, UniProt Q02556); test: Competitive isoTOP-ABPP, cell lysates; assay type: binding; details: for isoTOP-ABPP reactivity ratio, Q02556_C306 / isoTOP-ABPP reactivity profile ratio, Q02556_C306: 500 μm, in-vitro_ramos
T2 sequence (Q02556 1-426): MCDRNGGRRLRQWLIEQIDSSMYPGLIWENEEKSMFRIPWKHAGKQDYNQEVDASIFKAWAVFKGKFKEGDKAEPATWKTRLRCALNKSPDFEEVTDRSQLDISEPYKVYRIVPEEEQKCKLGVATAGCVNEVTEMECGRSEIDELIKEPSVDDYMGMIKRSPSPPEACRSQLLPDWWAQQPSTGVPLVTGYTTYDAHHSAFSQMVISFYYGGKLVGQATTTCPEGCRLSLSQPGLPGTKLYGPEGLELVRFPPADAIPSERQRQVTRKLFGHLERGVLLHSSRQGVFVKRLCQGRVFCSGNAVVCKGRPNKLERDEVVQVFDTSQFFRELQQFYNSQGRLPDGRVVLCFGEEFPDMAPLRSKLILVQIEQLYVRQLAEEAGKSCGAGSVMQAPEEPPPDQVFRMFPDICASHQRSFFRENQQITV

Compound: COc1ccc2c(c1)CCCN2C(=O)CCl [compound 2]
- R value (DMSO/fragment) (NR3C1 C302 (P04150)): 2.3

Compound: O=C(CCl)Nc1cc(C(F)(F)F)cc(C(F)(F)F)c1 [compound 3]
- R value (DMSO/fragment) (IRF8 C306 (Q02556); 500 μM, invitro, ramos): 5.6
- R value (DMSO/fragment) (NR3C1 C302 (P04150)): 7.6

Compound: C=CC(=O)N(c1ccccc1)c1ccc(Br)cc1 [compound 5]
- isoTOP-ABPP ratio, Q02556_C306 (IRF8 C306 (Q02556); 500 μM, invitro, ramos): 2.6

Compound: O=C(CCl)N1CCN(S(=O)(=O)c2ccccc2F)CC1 [compound 10]
- isoTOP-ABPP ratio, Q02556_C306 (IRF8 C306 (Q02556); 500 μM, invitro, ramos): 3.6
- isoTOP-ABPP ratio, P04150_C302 (NR3C1 C302 (P04150); 231): 4.1

Compound: Cn1cc(S(=O)(=O)N2CCOCC2)cc1C(=O)NC(=O)CCl [compound 11]
- isoTOP-ABPP ratio, Q02556_C306 (IRF8 C306 (Q02556); 500 μM, invitro, ramos): 3.1
- isoTOP-ABPP ratio, P04150_C302 (NR3C1 C302 (P04150); ramos): 1.5

Compound: O=C(CCl)NC(=O)NC12CC3CC(CC(C3)C1)C2 [compound 12]
- isoTOP-ABPP ratio, P04150_C302 (NR3C1 C302 (P04150); ramos): 1.3

Compound: O=C(CCl)NCCc1c[nH]c2ccccc12 [compound 13]
- isoTOP-ABPP ratio, Q02556_C306 (IRF8 C306 (Q02556); 500 μM, invitro, ramos): 0.7

Compound: C=CC(=O)N(Cc1cccnc1)c1ccc(Oc2ccccc2)c(C(F)(F)F)c1 [compound 15]
- isoTOP-ABPP ratio (reactivity profile), Q02556_C306 (IRF8 C306 (Q02556); 500 μm in-vitro ramos): 2.1
- isoTOP-ABPP ratio (reactivity profile), P04150_C302 (NR3C1 C302 (P04150); 500 μm in-vitro ramos): 0.9

Compound: O=C(CCl)N1CCC(C(O)(c2ccccc2)c2ccccc2)CC1 [compound 20]
- isoTOP-ABPP ratio (reactivity profile), Q02556_C306 (IRF8 C306 (Q02556); 500 μm in-vitro ramos): 2.1

Compound: O=C(CCl)N1CCOCC1 [compound 22]
- isoTOP-ABPP ratio (reactivity profile), P04150_C302 (NR3C1 C302 (P04150); 500 μm in-vitro ramos): 0.9

Compound: N#C/C(=C\c1cc(C(F)(F)F)cc(C(F)(F)F)c1)C(N)=O [compound 23]
- isoTOP-ABPP ratio (reactivity profile), P04150_C302 (NR3C1 C302 (P04150); 500 μm in-vitro ramos): 4.7

Compound: CC(Br)C(=O)Nc1cc(C(F)(F)F)cc(C(F)(F)F)c1 (centres unmarked) [compound 24]
- isoTOP-ABPP ratio (reactivity profile), Q02556_C306 (IRF8 C306 (Q02556); 500 μm in-vitro ramos): 1.2

Next, values leading:

- isoTOP-ABPP ratio (reactivity profile), Q02556_C306 (IRF8 C306 (Q02556); 500 μm in-vitro ramos_231): 1.1
- isoTOP-ABPP ratio (reactivity profile), P04150_C302 (NR3C1 C302 (P04150); 500 μm in-vitro ramos_231): 1.3 and 1.0
Compound: CC(C)CCOCCNC(=O)CCl [compound 27]

- isoTOP-ABPP reactivity ratio, Q02556_C306 (IRF8 C306 (Q02556)): 2.0
Compound: CCN(CC)c1ccc(S(N)(=O)=O)cc1NC(=O)CCl [compound 30]

- isoTOP-ABPP reactivity ratio, Q02556_C306 (IRF8 C306 (Q02556)): 1.2
- isoTOP-ABPP reactivity ratio, P04150_C302 (NR3C1 C302 (P04150); in-vitro_ramos): 0.9
Compound: O=C(CCl)Nc1ccccc1C1CCCCCC1 [compound 35]

- isoTOP-ABPP reactivity ratio, P04150_C302 (NR3C1 C302 (P04150); in-vitro_ramos): 0.9
Compound: C=CC(=O)N1CCC(c2noc3ccc(F)cc23)CC1 [compound 37]

- isoTOP-ABPP reactivity ratio, Q02556_C306 (IRF8 C306 (Q02556)): 0.9
Compound: C=CC(=O)Nc1cc(C)c(Br)cc1C [compound 40]

- isoTOP-ABPP reactivity ratio, Q02556_C306 (IRF8 C306 (Q02556)): 1.4
Compound: Cc1ccc(C=C(C#N)C(=O)NCCN2CCOCC2)cc1 [compound 41]

- isoTOP-ABPP reactivity profile ratio, Q02556_C306 (IRF8 C306 (Q02556)): 0.9
Compound: N#CC(=Cc1ccc(-c2ccccc2Cl)o1)C(N)=O [compound 42]

- isoTOP-ABPP reactivity profile ratio, Q02556_C306 (IRF8 C306 (Q02556)): 2.7
- isoTOP-ABPP reactivity profile ratio, P04150_C302 (NR3C1 C302 (P04150); in-vitro_ramos_231): 1.5
Compound: COc1cc(NC(=O)CCl)cc(OC)c1 [compound 43]

- isoTOP-ABPP reactivity profile ratio, Q02556_C306 (IRF8 C306 (Q02556)): 1.5
Compound: O=C(CCl)Nc1cccc2ncccc12 [compound 51]

- isoTOP-ABPP reactivity profile ratio, P04150_C302 (NR3C1 C302 (P04150); in-vitro_ramos): 1.8
Compound: O=C(CCl)Nc1ccc(-c2ccccc2)cc1 [compound 52]
